Among the data in ChEMBL document CHEMBL1146237, “Antineoplastic agents. 561. Total synthesis of respirantin” (2007) are GI50 values, retold here.

Assay [1] has as its system MCF7. Put plainly: Growth inhibition of human MCF7 cells. It counts as functional.
Assay [2] has as its system P388. In words: Growth inhibition of mouse P388 cells. It counts as functional.

Values after ≈ are worked out from the molar mass of the structure shown.

By GI50 is commonly meant the concentration giving 50% growth inhibition. A high value points to lower sensitivity of the cells. Take `CCC(C)[C@@H]1OC(=O)[C@H](C)OC(=O)[C@@H](NC(=O)c2cccc(NC=O)c2O)[C@@H](C)OC(=O)[C@H](C(C)C)OC(=O)C(C)(C)C(=O)[C@H](CC(C)C)NC1=O` (some centres undefined): the GI50 worked out at 0.00062 µg/mL (≈ 0.000845 µM) in assay [1] and 0.033 µg/mL (≈ 0.045 µM) in assay [2]. `CCC(C)[C@@H]1OC(=O)[C@H](C)OC(=O)[C@@H](NC(=O)c2cccc(N)c2O)[C@@H](C)OC(=O)[C@H](CC(C)C)OC(=O)C(C)(C)C(=O)[C@H](CC(C)C)NC1=O` (some centres undefined) [KITASTATIN]: growth in assay [2] was halved (GI50) at 0.045 µg/mL (≈ 0.0625 µM). In assay [2], `CCC(C)[C@@H]1OC(=O)[C@H](C)OC(=O)[C@@H](NC(=O)c2cccc(NC=O)c2O)[C@@H](C)OC(=O)[C@H](CC(C)C)OC(=O)C(C)(C)C(=O)[C@H](CC(C)C)NC1=O` (some centres undefined) [RESPIRANTIN] returned a GI50 of 0.0037 µg/mL (≈ 0.00495 µM).
